From patent US20210070748A1, “INHIBITORS OF BRUTONS TYROSINE KINASE” (Pharmacyclics LLC, priority 2015, published 2021)

Assays:
Format in all cases: biochemical
[1] = target: T1, BTK-WT (Homo sapiens, UniProt Q06187); assay: Btk in vitro inhibitory activity (one of Method A TR-FRET, Method B electrophoretic mobility shift, Method C radiometric filter binding); details: Table 13, A compounds; read-out: IC50 BTK-WT
T1 construct: purified from insect cells as a full-length construct containing an N-terminal 6X-His tag; His6 (N); made in house; host or cells: insect cells (baculovirus Sf21 in Method B)

[2] = target: LCK (Homo sapiens, UniProt P06239); assay: Inhibition of a panel of kinases, in vitro HotSpot kinase assay: LCK; details: Table 13, A compounds; 1 μM ATP; read-out: IC50 LCK
[3] = target: T2, ITK (Homo sapiens, UniProt Q08881); assay: Inhibition of a panel of kinases, in vitro HotSpot kinase assay: ITK; details: Table 13, A compounds; 1 μM ATP
T2 sequence (Q08881 1-620): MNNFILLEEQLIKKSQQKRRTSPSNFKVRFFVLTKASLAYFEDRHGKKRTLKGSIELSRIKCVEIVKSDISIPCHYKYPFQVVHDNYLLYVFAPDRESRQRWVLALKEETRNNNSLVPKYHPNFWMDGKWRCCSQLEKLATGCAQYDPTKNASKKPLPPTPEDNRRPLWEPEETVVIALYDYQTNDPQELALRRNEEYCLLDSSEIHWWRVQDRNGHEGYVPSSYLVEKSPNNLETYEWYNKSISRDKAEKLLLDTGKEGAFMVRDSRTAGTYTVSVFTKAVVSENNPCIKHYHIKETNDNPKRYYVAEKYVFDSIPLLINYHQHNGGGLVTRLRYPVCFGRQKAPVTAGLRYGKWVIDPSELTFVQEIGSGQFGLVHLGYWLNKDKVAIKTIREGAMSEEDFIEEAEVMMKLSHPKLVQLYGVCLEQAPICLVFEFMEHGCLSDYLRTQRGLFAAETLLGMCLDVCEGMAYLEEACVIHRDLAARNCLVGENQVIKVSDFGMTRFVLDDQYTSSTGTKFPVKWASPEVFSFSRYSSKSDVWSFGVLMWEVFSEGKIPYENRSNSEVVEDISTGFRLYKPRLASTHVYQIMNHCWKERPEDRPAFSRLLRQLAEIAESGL
Method: (§1) The degree of inhibition of a panel of kinases is determined using the in vitro HotSpot kinase assay (purified enzymes, ^33P-ATP, an appropriate substrate and 1 μM ATP).

[4] = target: EGFR (Homo sapiens, UniProt P00533); assay: Inhibition of a panel of kinases, in vitro HotSpot kinase assay: EGFR; details: Table 13, A compounds; 1 μM ATP
Method: as §1

[5] = target: SRC (Homo sapiens, UniProt P12931); assay: Inhibition of a panel of kinases, in vitro HotSpot kinase assay: SRC; details: Table 13, A compounds; 1 μM ATP
Method: as §1

[6] = target: T3, TEC (Homo sapiens, UniProt P42680); assay: Inhibition of a panel of kinases, in vitro HotSpot kinase assay: TEC; details: Table 13, A compounds; 1 μM ATP
T3 sequence (P42680 1-631): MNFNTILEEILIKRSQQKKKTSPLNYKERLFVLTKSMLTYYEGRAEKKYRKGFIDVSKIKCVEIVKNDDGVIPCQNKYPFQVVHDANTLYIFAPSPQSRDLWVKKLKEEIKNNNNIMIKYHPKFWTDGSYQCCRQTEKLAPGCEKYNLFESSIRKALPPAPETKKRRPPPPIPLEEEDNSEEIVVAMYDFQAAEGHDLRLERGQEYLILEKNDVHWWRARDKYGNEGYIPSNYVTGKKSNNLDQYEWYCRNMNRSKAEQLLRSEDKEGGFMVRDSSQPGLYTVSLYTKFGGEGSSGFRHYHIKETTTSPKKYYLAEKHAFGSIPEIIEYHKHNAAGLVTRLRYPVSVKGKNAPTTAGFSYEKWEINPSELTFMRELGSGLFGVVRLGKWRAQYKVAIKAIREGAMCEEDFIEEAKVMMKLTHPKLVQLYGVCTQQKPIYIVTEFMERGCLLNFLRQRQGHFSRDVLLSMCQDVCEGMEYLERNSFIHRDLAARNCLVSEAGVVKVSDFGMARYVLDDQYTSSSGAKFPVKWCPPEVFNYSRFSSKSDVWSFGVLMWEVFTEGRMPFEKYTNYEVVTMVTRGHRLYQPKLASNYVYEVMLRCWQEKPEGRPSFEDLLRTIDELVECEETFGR
Method: as §1

Sequence of EGFR (P00533 25-1210): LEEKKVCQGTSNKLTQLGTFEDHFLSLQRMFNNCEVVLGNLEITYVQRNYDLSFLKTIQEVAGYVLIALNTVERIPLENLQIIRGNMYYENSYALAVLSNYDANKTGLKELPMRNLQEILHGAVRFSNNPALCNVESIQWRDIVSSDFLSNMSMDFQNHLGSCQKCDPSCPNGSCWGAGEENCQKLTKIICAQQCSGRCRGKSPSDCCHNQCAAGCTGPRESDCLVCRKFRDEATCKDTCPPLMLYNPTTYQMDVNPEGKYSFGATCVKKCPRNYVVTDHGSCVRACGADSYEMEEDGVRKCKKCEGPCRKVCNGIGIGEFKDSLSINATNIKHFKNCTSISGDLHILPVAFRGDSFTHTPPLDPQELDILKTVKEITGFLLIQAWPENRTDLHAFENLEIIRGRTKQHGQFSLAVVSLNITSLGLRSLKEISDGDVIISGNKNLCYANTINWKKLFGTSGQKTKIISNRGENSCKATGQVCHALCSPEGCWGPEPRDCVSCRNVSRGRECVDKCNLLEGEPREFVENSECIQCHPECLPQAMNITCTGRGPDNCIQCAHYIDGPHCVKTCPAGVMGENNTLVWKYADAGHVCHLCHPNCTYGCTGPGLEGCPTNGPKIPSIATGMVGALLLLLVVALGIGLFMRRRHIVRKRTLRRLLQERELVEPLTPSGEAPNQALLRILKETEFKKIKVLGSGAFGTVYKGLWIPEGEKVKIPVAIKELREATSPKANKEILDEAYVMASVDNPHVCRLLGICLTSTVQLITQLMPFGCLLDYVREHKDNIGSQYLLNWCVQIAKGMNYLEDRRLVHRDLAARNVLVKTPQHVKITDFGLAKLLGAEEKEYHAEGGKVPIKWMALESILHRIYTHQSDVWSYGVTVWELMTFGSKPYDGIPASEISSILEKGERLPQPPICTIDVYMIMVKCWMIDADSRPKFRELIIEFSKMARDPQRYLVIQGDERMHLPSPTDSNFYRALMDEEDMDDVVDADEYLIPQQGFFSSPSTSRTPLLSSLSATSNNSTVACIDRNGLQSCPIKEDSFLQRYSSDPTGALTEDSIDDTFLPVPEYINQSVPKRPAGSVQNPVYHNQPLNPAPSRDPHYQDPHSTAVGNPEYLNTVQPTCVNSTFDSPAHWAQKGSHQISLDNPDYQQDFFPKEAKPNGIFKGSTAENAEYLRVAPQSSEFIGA
Sequence of SRC (P12931 whole entry): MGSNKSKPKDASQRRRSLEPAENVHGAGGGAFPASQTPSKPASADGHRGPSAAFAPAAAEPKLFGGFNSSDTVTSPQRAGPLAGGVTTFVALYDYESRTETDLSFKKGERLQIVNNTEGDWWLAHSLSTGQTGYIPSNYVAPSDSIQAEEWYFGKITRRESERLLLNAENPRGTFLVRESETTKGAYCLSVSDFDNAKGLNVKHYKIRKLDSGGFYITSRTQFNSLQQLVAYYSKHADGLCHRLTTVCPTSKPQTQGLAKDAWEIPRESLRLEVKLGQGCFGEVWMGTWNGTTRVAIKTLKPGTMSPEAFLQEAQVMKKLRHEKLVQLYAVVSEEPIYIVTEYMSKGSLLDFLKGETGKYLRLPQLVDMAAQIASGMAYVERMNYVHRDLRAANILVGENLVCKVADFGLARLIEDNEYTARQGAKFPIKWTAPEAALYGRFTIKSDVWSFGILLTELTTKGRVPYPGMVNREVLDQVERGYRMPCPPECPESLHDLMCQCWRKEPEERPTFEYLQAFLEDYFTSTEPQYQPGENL
T1 sequence (Q06187 whole entry): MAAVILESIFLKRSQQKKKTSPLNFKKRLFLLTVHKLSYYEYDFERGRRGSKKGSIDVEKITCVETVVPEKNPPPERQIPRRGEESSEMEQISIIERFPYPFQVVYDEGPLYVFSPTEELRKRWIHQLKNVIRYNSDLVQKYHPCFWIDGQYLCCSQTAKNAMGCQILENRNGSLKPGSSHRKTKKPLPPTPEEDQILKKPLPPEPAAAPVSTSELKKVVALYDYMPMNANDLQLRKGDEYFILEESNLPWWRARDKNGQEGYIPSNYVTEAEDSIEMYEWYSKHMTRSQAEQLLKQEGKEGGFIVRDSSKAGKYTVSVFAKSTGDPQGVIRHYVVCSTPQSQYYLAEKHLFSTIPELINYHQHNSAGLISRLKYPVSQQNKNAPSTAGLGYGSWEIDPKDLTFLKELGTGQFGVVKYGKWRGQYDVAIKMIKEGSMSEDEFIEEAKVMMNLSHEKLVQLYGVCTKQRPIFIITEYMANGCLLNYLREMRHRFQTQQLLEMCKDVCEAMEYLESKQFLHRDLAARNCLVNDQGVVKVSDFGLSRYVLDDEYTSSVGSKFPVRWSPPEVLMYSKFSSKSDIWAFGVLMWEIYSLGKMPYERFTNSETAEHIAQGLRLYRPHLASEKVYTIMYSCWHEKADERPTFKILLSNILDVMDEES
Sequence of LCK (P06239 whole entry): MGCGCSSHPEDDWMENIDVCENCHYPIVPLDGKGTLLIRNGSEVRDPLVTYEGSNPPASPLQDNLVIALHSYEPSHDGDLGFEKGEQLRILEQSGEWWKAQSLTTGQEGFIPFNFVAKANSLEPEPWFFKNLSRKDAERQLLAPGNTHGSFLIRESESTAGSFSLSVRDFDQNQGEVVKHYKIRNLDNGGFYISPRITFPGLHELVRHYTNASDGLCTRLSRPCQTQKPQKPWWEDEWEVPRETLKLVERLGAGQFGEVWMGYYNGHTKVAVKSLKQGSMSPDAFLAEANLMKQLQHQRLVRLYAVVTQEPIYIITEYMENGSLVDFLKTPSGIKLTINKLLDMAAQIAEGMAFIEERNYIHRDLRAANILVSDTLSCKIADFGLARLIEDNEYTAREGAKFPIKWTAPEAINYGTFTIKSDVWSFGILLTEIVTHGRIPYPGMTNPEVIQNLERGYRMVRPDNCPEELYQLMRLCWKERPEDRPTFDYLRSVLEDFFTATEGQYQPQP

Compound: C[C@@H]1[C@H](NC(=O)c2ccc(C3CC3)cc2F)CCCN1c1cnc(C(N)=O)c(Nc2ccc(C(=O)N3CCN(C)CC3)cc2)n1 [Example A-122, 5-[(2R,3R)-3-(4-cyclopropyl-2-fluorobenzamido)-2-methylpiperidin-1-yl]-3-{[4-(4-methylpiperazine-1-carbonyl)phenyl]amino}pyr-azine-2-carboxamide]
- IC50 [1]: ≤ 10 nM
- IC50 [2]: 100 to 1000 nM
- IC50 [3]: 100 to 1000 nM
- IC50 [4]: 100 to 1000 nM
- IC50 [5]: 100 to 1000 nM
- IC50 [6]: 10 to 100 nM

Compound: C[C@@H]1[C@H](NC(=O)c2ccc(C3CC3)cc2F)CCCN1c1cnc(C(N)=O)c(Nc2ccc(N3CCN(C4CCCC4)CC3)cc2)n1 [Example A-125, 3-{[4-(4-cyclopentylpiperazin-1-yl)phenyl]amino}-5-[(2R,3R)-3-(4-cyclopropyl-2-fluorobenzamido)-2-methylpiperidin-1-yl]pyrazine-2-carboxamide]
- IC50 [1]: ≤ 10 nM
- IC50 [2]: 100 to 1000 nM
- IC50 [3]: 100 to 1000 nM
- IC50 [4]: 100 to 1000 nM
- IC50 [5]: 10 to 100 nM
- IC50 [6]: 10 to 100 nM

Compound: C[C@@H]1[C@H](NC(=O)c2ccc(C3CC3)cc2F)CCCN1c1cnc(C(N)=O)c(Nc2cnn(C)c2)c1 [Example A-127, 5-[(2R,3R)-3-(4-cyclopropyl-2-fluorobenzamido)-2-methylpiperidin-1-yl]-3-[(1-methyl-1H-pyrazol-4-yl)amino]pyridine-2-carboxamide]
- IC50 [1]: 10 to 100 nM
- IC50 [2]: 100 to 1000 nM
- IC50 [3]: 1000 to 10000 nM
- IC50 [4]: 1000 to 10000 nM
- IC50 [5]: 100 to 1000 nM
- IC50 [6]: 100 to 1000 nM

Compound: C[C@@H]1[C@H](NC(=O)c2ccc(C3CC3)cc2F)CCCN1c1cnc(C(N)=O)c(Nc2cc(CN3CCOCC3)ns2)n1 [Example A-128, 5-[(2R,3R)-3-(4-cyclopropyl-2-fluorobenzamido)-2-methylpiperidin-1-yl]-3-{[3-(morpholin-4-ylmethyl)-1,2-thiazol-5-yl]amino}pyrazine-2-carboxamide]
- IC50 [1]: ≤ 10 nM
- IC50 [2]: 10 to 100 nM
- IC50 [3]: 100 to 1000 nM
- IC50 [4]: 100 to 1000 nM
- IC50 [5]: 10 to 100 nM
- IC50 [6]: 10 to 100 nM

Compound: CN1CCN(c2ccc(Nc3nc(N4CCC[C@@H](n5ccc6cc(C7CC7)cc(F)c6c5=O)C4)cnc3C(N)=O)cc2)CC1 [Example A-133, 5-[(3R)-3-(6-cyclo-propyl-8-fluoro-1-oxo-1,2-dihydroisoquinolin-2-yl)piperidin-1-yl]-3-{[4-(4-methylpiperazin-1-yl)phenyl]amino}pyrazine-2-carboxamide]
- IC50 [1]: ≤ 10 nM
- IC50 [2]: 100 to 1000 nM
- IC50 [3]: 100 to 1000 nM
- IC50 [4]: 100 to 1000 nM
- IC50 [5]: 10 to 100 nM
- IC50 [6]: 10 to 100 nM

Compound: C[C@@H]1[C@H](n2ccc3cc(C4CC4)ccc3c2=O)CCCN1c1cnc(C(N)=O)c(Nc2ccc(N3CCN(C)CC3)cc2)n1 [Example A-140, 5-[(2R,3R)-3-(6-cyclopropyl-1-oxo-1,2-dihydro-isoquinolin-2-yl)-2-methylpiperidin-1-yl]-3-{[4-(4-methylpiperazin-1-yl)phenyl]amino}pyrazine-2-carboxamide]
- IC50 [1]: ≤ 10 nM
- IC50 [2]: 10 to 100 nM
- IC50 [3]: 100 to 1000 nM
- IC50 [4]: 100 to 1000 nM
- IC50 [5]: 10 to 100 nM
- IC50 [6]: 10 to 100 nM

Compound: CC1(c2ccc(Nc3nc(N4CCC[C@@H](n5ccc6cc(C7CC7)ccc6c5=O)C4)cnc3C(N)=O)cc2)CCN(C2CCCC2)CC1 [Example A-141, 3-{[4-(1-cyclopentyl-4-methylpiperidin-4-yl)phenyl]amino}-5-[(3R)-3-(6-cyclopropyl-1-oxo-1,2-dihydroisoquinolin-2-yl)piperidin-1-yl]pyrazine-2-carboxamide]
- IC50 [1]: ≤ 10 nM
- IC50 [2]: 10 to 100 nM
- IC50 [3]: 10 to 100 nM
- IC50 [4]: 100 to 1000 nM
- IC50 [5]: 10 to 100 nM
- IC50 [6]: ≤ 10 nM

Compound: CC(C)N1CCN(c2ccc(Nc3nc(N4CCC[C@@H](NC(=O)c5ccc(C6CC6)cc5F)[C@H]4C)cnc3C(N)=O)cc2)CC1 [Example A-149, 5-[(2R,3R)-3-(4-cyclopropyl-2-fluorobenzamido)-2-methylpiperidin-1-yl]-3-({4-[4-(propan-2-yl)piperazin-1-yl]phenyl}amino)pyrazine-2-carboxamide]
- IC50 [1]: ≤ 10 nM
- IC50 [2]: 10 to 100 nM
- IC50 [3]: 10 to 100 nM
- IC50 [4]: 100 to 1000 nM
- IC50 [5]: 10 to 100 nM
- IC50 [6]: 10 to 100 nM

Compound: C[C@@H]1[C@H](NC(=O)c2ccc(C3CC3)cc2F)CCCN1c1cnc(C(N)=O)c(Nc2ccc(S(=O)(=O)N3CCN(C)CC3)cc2)n1 [Example A-156, 5-[(2R,3R)-3-(4-cyclopropyl-2-fluorobenzamido)-2-methylpiperidin-1-yl]-3-({4-[(4-methylpiperazin-1-yl)sulfonyl]phenyl}amino)pyr-azine-2-carboxamide]
- IC50 [1]: ≤ 10 nM
- IC50 [2]: 1000 to 10000 nM
- IC50 [3]: 100 to 1000 nM
- IC50 [4]: 1000 to 10000 nM
- IC50 [5]: 100 to 1000 nM
- IC50 [6]: 100 to 1000 nM

Compound: Cn1cc(Nc2nc(N3CCC[C@@H](n4ccc5cc(C6CC6)ccc5c4=O)C3)cnc2C(N)=O)cn1 [Example A-167, 5-[(3R)-3-(6-cyclopropyl-1-oxo-1,2-dihydroisoquinolin-2-yl)piperidin-1-yl]-3-[(1-methyl-1H-pyrazol-4-yl)amino]pyrazine-2-carboxamide]
- IC50 [1]: ≤ 10 nM
- IC50 [2]: 1000 to 10000 nM
- IC50 [3]: > 10000 nM
- IC50 [4]: > 10000 nM
- IC50 [5]: 1000 to 10000 nM
- IC50 [6]: 10 to 100 nM

Compound: C[C@@H]1[C@H](NC(=O)c2ccc(C3CC3)cc2)CCCN1c1cnc(C(N)=O)c(Nc2cnn(C)c2)n1 [Example A-169, 5-[(2R,3R)-3-(4-cyclopropylbenzamido)-2-methylpiperidin-1-yl]-3-[(1-methyl-1H-pyrazol-4-yl)amino]pyrazine-2-carboxamide]
- IC50 [1]: ≤ 10 nM
- IC50 [2]: 100 to 1000 nM
- IC50 [3]: 1000 to 10000 nM
- IC50 [4]: 1000 to 10000 nM
- IC50 [5]: 100 to 1000 nM
- IC50 [6]: 10 to 100 nM

Compound: C[C@@H]1[C@H](NC(=O)c2ccc(C3CC3)cc2)CCCN1c1cnc(C(N)=O)c(Nc2ccc(N3CCN(C)CC3)cc2)n1 [Example A-170, 5-[(2R,3R)-3-(4-cyclopropylbenzamido)-2-methylpiperidin-1-yl]-3-{[4-(4-methylpiperazin-1-yl)phenyl]amino}pyrazine-2-carboxamide]
- IC50 [1]: ≤ 10 nM
- IC50 [2]: 10 to 100 nM
- IC50 [3]: 100 to 1000 nM
- IC50 [4]: 100 to 1000 nM
- IC50 [5]: 10 to 100 nM
- IC50 [6]: 10 to 100 nM

Compound: C[C@@H]1[C@H](NC(=O)c2ccc(C3CC3)cc2F)CCCN1c1cnc(C(N)=O)c(Nc2ccc(N3CCN(C)CC3)c(F)c2)n1 [Example A-171, 5-[(2R,3R)-3-(4-cyclopropyl-2-fluorobenzamido)-2-methylpiperidin-1-yl]-3-{[3-fluoro-4-(4-methylpiperazin-1-yl)phenyl]amino}pyrazine-2-carboxamide]
- IC50 [1]: ≤ 10 nM
- IC50 [2]: 10 to 100 nM
- IC50 [3]: 100 to 1000 nM
- IC50 [4]: 100 to 1000 nM
- IC50 [5]: 10 to 100 nM
- IC50 [6]: 10 to 100 nM

Compound: C[C@@H]1[C@H](NC(=O)c2ccc(C3CC3)cc2)CCCN1c1cnc(C(N)=O)c(Nc2cnn(C3CCN(C)CC3)c2)n1 [Example A-173]
- IC50 [1]: ≤ 10 nM
- IC50 [2]: 10 to 100 nM
- IC50 [3]: 100 to 1000 nM
- IC50 [4]: 100 to 1000 nM
- IC50 [5]: 10 to 100 nM
- IC50 [6]: 10 to 100 nM

Compound: C[C@@H]1[C@H](NC(=O)c2ccc(C3CC3)cc2F)CCCN1c1cnc(C(N)=O)c(Nc2ccc(C3(C)CCN(C4CC4)CC3)cc2)n1 [Example A-174, 5-[(2R,3R)-3-(4-cyclopropyl-2-fluorobenzamido)-2-methylpiperidin-1-yl]-3-{[4-(1-cyclopropyl-4-methylpiperidin-4-yl)phenyl]amino}pyrazine-2-carboxamide]
- IC50 [1]: ≤ 10 nM
- IC50 [2]: 10 to 100 nM
- IC50 [3]: 100 to 1000 nM
- IC50 [4]: 100 to 1000 nM
- IC50 [5]: 100 to 1000 nM
- IC50 [6]: 10 to 100 nM
